These results are taken from article PMC10187092 (Emerging Microbes & Infections, 2023).

The target in experiment [1] is SARS-CoV-2 3CLpro (Severe acute respiratory syndrome coronavirus 2, UniProt P0DTD1). In kind it is cell-based.
The target of experiment [2] is SARS-CoV-2 3CLpro (wild-type) (Severe acute respiratory syndrome coronavirus 2, UniProt P0DTD1). In kind it is cell-based.

On to `CCO[C@@H]1OC(=O)C[C@@H]1NC(=O)[C@@H]1CCCN1C(=O)[C@@H](NC(=O)c1ccc(N)c(Cl)c1)C(C)(C)C` [Belnacasan], for which the “rescue of reporter expression in 3CLpro transfected cells” value in experiment [1] is “failed to rescue reporter expression”.

For the compound `CC(C)(C)NC(=O)N[C@H](C(=O)N1C[C@H]2[C@@H]([C@H]1C(=O)NC(CC1CCC1)C(=O)C(N)=O)C2(C)C)C(C)(C)C` (stereo partly drawn) [Boceprevir], the “potency in dose-response validation” value in experiment [2] is on record as “weak to moderate potency”.

`O=c1c2ccccc2[se]n1-c1ccccc1` [Ebselen]: the “inhibition of 3CLpro” value in experiment [2] is “no inhibition”.

With `Cc1ccc(NC(=O)c2ccc(CN3CCN(C)CC3)cc2)cc1Nc1nc(-c2cccnc2)cs1` [Masitinib], the “inhibition of 3CLpro” value in experiment [2] was “negative”.

For the compound Ac-DEVD-CHO, the “rescue of reporter expression in 3CLpro transfected cells” value in experiment [1] is “failed to rescue reporter expression”.

Consider Z-FA-FMK, for which, in experiment [2], the “potency in dose-response validation” value was “weak to moderate potency”.
